Reference: PubChem BioAssay AID248 (DTP/NCI, 2004)
Several values for one entry are separate records, joined by “and”; a condition that tells them apart may be missing. Equal entries are not always repeated. Toxic doses and inconclusive results are not listed. Cut-off read from the data, not from the text of the source: active = T/C of 150% or more; inactive = T/C below 125%. Peptide text beside a SMILES is read from it. * marks the point of attachment. Cbz = O=C(OCc1ccccc1)*

Test system: L1210 leukemia ip in BDF1 mice, survival T/C
Test: NCI In Vivo Anticancer Drug Screen. Data for tumor model L1210 Leukemia (intraperitoneal) in B6D2F1 (BDF1) mice
Details: endpoint: mean survival time, higher = longer survival
In short: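 Antitumor effect is assessed in tumor-bearing animals. Survival in the compound arm is compared with a vehicle-dosed control arm and expressed as their quotient.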

[1] = dose: 100.0 mg/kg/injection, schedule: Q01DX009 (ip), vehicle: saline with Tween-80
[2] = dose: 100.0 mg/kg/injection, schedule: Q04DX003 (ip), vehicle: saline with Tween-80
[3] = dose: 200.0 mg/kg/injection, schedule: Q01DX009 (ip), vehicle: saline with Tween-80
[4] = dose: 200.0 mg/kg/injection, schedule: Q04DX003 (ip), vehicle: saline with Tween-80
[5] = dose: 400.0 mg/kg/injection, schedule: Q04DX003 (ip), vehicle: saline with Tween-80
[6] = dose: 100.0 mg/kg/injection, schedule: Q01DX001 (ip), vehicle: saline
[7] = dose: 200.0 mg/kg/injection, schedule: Q01DX001 (ip), vehicle: saline
[8] = dose: 100.0 mg/kg/injection, schedule: Q01DX009 (ip), vehicle: Klucel (hydroxypropylcellulose) (HPC)
[9] = dose: 200.0 mg/kg/injection, schedule: Q01DX009 (ip), vehicle: Klucel (hydroxypropylcellulose) (HPC)
[10] = dose: 100.0 mg/kg/injection, schedule: Q04DX003 (ip), vehicle: Klucel (hydroxypropylcellulose) (HPC)
[11] = dose: 200.0 mg/kg/injection, schedule: Q04DX003 (ip), vehicle: Klucel (hydroxypropylcellulose) (HPC)
[12] = dose: 400.0 mg/kg/injection, schedule: Q04DX003 (ip), vehicle: Klucel (hydroxypropylcellulose) (HPC)
[13] = dose: 100.0 mg/kg/injection, schedule: Q01DX001 (ip), vehicle: saline with Tween-80
[14] = dose: 200.0 mg/kg/injection, schedule: Q01DX001 (ip), vehicle: saline with Tween-80
[15] = dose: 400.0 mg/kg/injection, schedule: Q01DX001 (ip), vehicle: saline with Tween-80

Measured: T/C

Cc1cn(C2CC(O)C(CO)O2)c(=O)[nH]c1=O (centres undefined)
inactive: dose: 50.0 mg/kg/injection, schedule: Q03HX024 (ip), vehicle: saline 100 % of control | dose: 100.0 mg/kg/injection, schedule: Q03HX024 (ip), vehicle: saline 100 % of control | dose: 200.0 mg/kg/injection, schedule: Q03HX024 (ip), vehicle: saline 98 % of control | dose: 400.0 mg/kg/injection, schedule: Q03HX024 (ip), vehicle: saline 100 % of control

O=[N+]([O-])c1ccc(NCCO)c([N+](=O)[O-])c1
inactive: [1] 98 % of control | [2] 88 % of control | [3] 106 % of control | [4] 97 % of control | [5] 88 % of control

CCOC(=O)C(C)C(c1ccccc1)c1ccccc1 (centres undefined)
inactive: [2] 92 % of control | [4] 93 % of control | [5] 96 % of control

CC(=O)C(Cl)C(C)=O.CC(=O)C(Cl)C(C)=O.CO.CO.[Ni]
inactive: dose: 12.0 mg/kg/injection, schedule: Q01DX009 (ip), vehicle: other 91 % of control | dose: 25.0 mg/kg/injection, schedule: Q01DX009 (ip), vehicle: other 93 % of control | [6] 112 % of control | [7] 89 % of control

COc1ccc(C(=O)c2ccn[nH]2)cc1
inactive: dose: 75.0 mg/kg/injection, schedule: Q04DX003 (ip), vehicle: Klucel (hydroxypropylcellulose) (HPC) 97 % of control | dose: 150.0 mg/kg/injection, schedule: Q04DX003 (ip), vehicle: Klucel (hydroxypropylcellulose) (HPC) 100 % of control | dose: 300.0 mg/kg/injection, schedule: Q04DX003 (ip), vehicle: Klucel (hydroxypropylcellulose) (HPC) 99 % of control

C1=CC([P+](Cc2ccccc2)(c2ccccc2)c2ccccc2)CC1 (centres undefined)
inactive: dose: 6.25 mg/kg/injection, schedule: Q04DX003 (ip), vehicle: saline 95 % of control | dose: 12.5 mg/kg/injection, schedule: Q04DX003 (ip), vehicle: saline 90 % of control | dose: 25.0 mg/kg/injection, schedule: Q04DX003 (ip), vehicle: saline 96 % of control | dose: 50.0 mg/kg/injection, schedule: Q04DX003 (ip), vehicle: saline 93 % of control and 96 % of control

CC(C)(COC(=O)COc1ccc(Cl)cc1Cl)[N+](=O)[O-]
inactive: [8] 97 % of control | [9] 92 % of control

O=[N+]([O-])c1cccc(N=Nc2ccc(O)cc2)c1
inactive: [8] 102 % of control | dose: 130.0 mg/kg/injection, schedule: Q01DX009 (ip), vehicle: Klucel (hydroxypropylcellulose) (HPC) 106 % of control

CC(=C=CC(c1ccccc1)(c1ccccc1)c1ccccc1)CC(c1ccccc1)(c1ccccc1)c1ccccc1
inactive: [10] 96 % of control | [11] 95 % of control | [12] 95 % of control

O=C(CC1(O)C(=O)Nc2ccccc21)C12CC3CC(CC(C3)C1)C2 (centres undefined)
inactive: dose: 50.0 mg/kg/injection, schedule: Q01DX009 (ip), vehicle: saline with Tween-80 104 % of control | [1] 101 % of control | [3] 96 % of control

CC1=CC(=O)CC(=O)O1
inactive: dose: 100.0 mg/kg/injection, schedule: Q01DX001 (ip), vehicle: Klucel (hydroxypropylcellulose) (HPC) 103 % of control | [8] 96 % of control | [10] 97 % of control | dose: 200.0 mg/kg/injection, schedule: Q01DX001 (ip), vehicle: Klucel (hydroxypropylcellulose) (HPC) 108 % of control | [9] 94 % of control | [11] 101 % of control | dose: 400.0 mg/kg/injection, schedule: Q01DX001 (ip), vehicle: Klucel (hydroxypropylcellulose) (HPC) 103 % of control | [12] 95 % of control

COc1ccc2nc3cc(Cl)ccc3c(NCCCNCCCl)c2c1
inactive: dose: 10.0 mg/kg/injection, schedule: Q04DX003 (ip), vehicle: Klucel (hydroxypropylcellulose) (HPC) 115 % of control | dose: 20.0 mg/kg/injection, schedule: Q04DX003 (ip), vehicle: Klucel (hydroxypropylcellulose) (HPC) 103 % of control | dose: 40.0 mg/kg/injection, schedule: Q04DX003 (ip), vehicle: Klucel (hydroxypropylcellulose) (HPC) 105 % of control

COC(C(=O)O)c1ccc(Cl)cc1 (centres undefined)
inactive: dose: 100.0 mg/kg/injection, schedule: Q04DX002 (ip), vehicle: saline with Tween-80 98 % of control | dose: 200.0 mg/kg/injection, schedule: Q04DX002 (ip), vehicle: saline with Tween-80 91 % of control | dose: 400.0 mg/kg/injection, schedule: Q04DX002 (ip), vehicle: saline with Tween-80 91 % of control

COc1c2c(c(OC)c3c(=O)c4ccccc4[nH]c13)OCO2
inactive: dose: 62.5 mg/kg/injection, schedule: Q01DX001 (ip), vehicle: carboxymethylcellulose (CMC) 100 % of control | dose: 125.0 mg/kg/injection, schedule: Q01DX001 (ip), vehicle: carboxymethylcellulose (CMC) 97 % of control | dose: 250.0 mg/kg/injection, schedule: Q01DX001 (ip), vehicle: carboxymethylcellulose (CMC) 105 % of control | dose: 500.0 mg/kg/injection, schedule: Q01DX001 (ip), vehicle: carboxymethylcellulose (CMC) 97 % of control

CC(N)CSC(=O)c1ccccc1 (centres undefined)
inactive: [2] 100 % of control | [4] 100 % of control | [5] 94 % of control

CC1c2cc(C(=O)O)ccc2OC1(C)C (centres undefined)
inactive: [6] 96 % of control | [7] 102 % of control | dose: 400.0 mg/kg/injection, schedule: Q01DX001 (ip), vehicle: saline 91 % of control

O=C(CNC(=O)OCc1ccccc1)NCC(=O)NC(Cc1c[nH]c2ccccc12)C(=O)OCc1ccccc1 (centres undefined)
inactive: [10] 100 % of control | [11] 101 % of control | [12] 94 % of control

CCOC(=O)CCC(NC(=O)c1ccc(NCc2nnc3nc(N)nc(SCc4ccccc4)c3n2)cc1)C(=O)OCC (centres undefined)
inactive: [13] 103 % of control | [14] 100 % of control | [15] 105 % of control

CC(=O)OC1CCC2(C)C3CCC4(C)C(O)CCC4C3CC(O)C2(O)C1 (centres undefined)
inactive: [1] 110 % of control | [3] 97 % of control | dose: 400.0 mg/kg/injection, schedule: Q01DX009 (ip), vehicle: saline with Tween-80 94 % of control

CC1(C)N=C(N)N=C(N)N1c1ccc(CCc2ccc(S(=O)(=O)F)cc2)cc1
inactive: [13] 97 % of control | [14] 97 % of control | [15] 102 % of control

CC(C)C(NC(=O)C1CCCN1C(=O)OCc1ccccc1)C(=O)O (stereo not drawn) (Cbz-Pro-Val-OH; configuration not given here)
inactive: dose: 100.0 mg/kg/injection, schedule: Q01DX009 (ip), vehicle: saline sonified 102 % of control | dose: 100.0 mg/kg/injection, schedule: Q04DX003 (ip), vehicle: saline sonified 97 % of control | dose: 200.0 mg/kg/injection, schedule: Q01DX009 (ip), vehicle: saline sonified 92 % of control | dose: 200.0 mg/kg/injection, schedule: Q04DX003 (ip), vehicle: saline sonified 96 % of control | dose: 400.0 mg/kg/injection, schedule: Q01DX009 (ip), vehicle: saline sonified 97 % of control | dose: 400.0 mg/kg/injection, schedule: Q04DX003 (ip), vehicle: saline sonified 97 % of control

CN(N(P(N)(Cl)(c1ccccc1)c1ccccc1)P(N)(Cl)(c1ccccc1)c1ccccc1)P(N)(Cl)(c1ccccc1)c1ccccc1
inactive: dose: 100.0 mg/kg/injection, schedule: Q01DX001 (ip), vehicle: steriod suspending solution 113 % of control | dose: 200.0 mg/kg/injection, schedule: Q01DX001 (ip), vehicle: steriod suspending solution 108 % of control

Oc1ccc(CN2CCCCC2)c2cccnc12
inactive: dose: 75.0 mg/kg/injection, schedule: Q01DX001 (ip), vehicle: carboxymethylcellulose (CMC) 106 % of control | dose: 150.0 mg/kg/injection, schedule: Q01DX001 (ip), vehicle: carboxymethylcellulose (CMC) 106 % of control
